In ChEMBL document CHEMBL1143799, “Synthesis and primary cytotoxicity evaluation of new imidazo[2,1-b]thiazole derivatives” (2007):
Blank lines part the entries; values can stand above or below the molecule they belong to.

Key:
Format in all cases: functional
[1] = test system: HCT-116; assay: Growth inhibition of human HCT116 cells after 48 hrs by SRB protein assay; conditions: HCT-116, 48 h; for TGI: read-out: Log TGI (converted)
[2] = test system: UACC-62; assay: Growth inhibition of human UACC62 cells after 48 hrs by SRB protein assay; conditions: UACC-62, 48 h; for TGI: read-out: Log TGI (converted)
[3] = test system: COLO 205; assay: Growth inhibition of human COLO205 cells after 48 hrs by SRB protein assay; conditions: COLO 205, 48 h; for TGI: read-out: Log TGI (converted)
[4] = test system: HCC 2998; assay: Growth inhibition of human HCC2998 cells after 48 hrs by SRB protein assay; conditions: HCC 2998, 48 h; for TGI: read-out: Log TGI (converted)
[5] = test system: T47D; assay: Growth inhibition of human T47D cells after 48 hrs by SRB protein assay; conditions: for TGI: read-out: Log TGI (converted)
[6] = Growth inhibition of human 786O cells after 48 hrs by SRB protein assay; conditions: 786-0, 48 h; for TGI: read-out: Log TGI (converted)
[7] = test system: CAKI-1; assay: Growth inhibition of human CAKI1 cells after 48 hrs by SRB protein assay; conditions: CAKI-1, 48 h; for TGI: read-out: Log TGI (converted)
[8] = test system: NCI-H23; assay: Growth inhibition of human NCI-H23 cells after 48 hrs by SRB protein assay; conditions: NCI-H23, 48 h; for TGI: read-out: Log TGI (converted)
[9] = test system: HT-29; assay: Growth inhibition of human HT29 cells after 48 hrs by SRB protein assay; conditions: HT-29, 48 h; for TGI: read-out: Log TGI (converted)
[10] = test system: OVCAR-3; assay: Growth inhibition of human OVCAR-3 cells after 48 hrs by SRB protein assay; conditions: OVCAR-3, 48 h; for TGI: read-out: Log TGI (converted)
[11] = test system: DU-145; assay: Growth inhibition of human DU145 cells after 48 hrs by SRB protein assay; conditions: DU-145, 48 h; for TGI: read-out: Log TGI (converted)
[12] = test system: HCT-15; assay: Growth inhibition of human HCT15 cells after 48 hrs by SRB protein assay; conditions: HCT-15, 48 h; for TGI: read-out: Log TGI (converted)
[13] = test system: UACC-257; assay: Growth inhibition of human UACC257 cells after 48 hrs by SRB protein assay; conditions: UACC-257, 48 h; for TGI: read-out: Log TGI (converted)
[14] = test system: IGROV-1; assay: Growth inhibition of human IGROV1 cells after 48 hrs by SRB protein assay; conditions: IGROV-1, 48 h; for TGI: read-out: Log TGI (converted)
[15] = test system: OVCAR-8; assay: Growth inhibition of human OVCAR8 cells after 48 hrs by SRB protein assay; conditions: OVCAR-8, 48 h; for TGI: read-out: Log TGI (converted)
[16] = test system: A549; assay: Growth inhibition of human A549 cells after 48 hrs by SRB protein assay; conditions: A549, 48 h; for TGI: read-out: Log TGI (converted)
[17] = test system: SNB-75; assay: Growth inhibition of human SNB75 cells after 48 hrs by SRB protein assay; conditions: SNB-75, 48 h; for TGI: read-out: Log TGI (converted)
[18] = test system: NCI-H460; assay: Growth inhibition of human NCI-H460 cells after 48 hrs by SRB protein assay; conditions: NCI-H460, 48 h; for TGI: read-out: Log TGI (converted)
[19] = test system: RXF 393; assay: Growth inhibition of human RXF393 cells after 48 hrs by SRB protein assay; conditions: RXF 393, 48 h; for TGI: read-out: Log TGI (converted)
[20] = test system: MCF7; assay: Growth inhibition of human MCF7 cells after 48 hrs by SRB protein assay; conditions: MCF7, 48 h; for TGI: read-out: Log TGI (converted)
[21] = test system: SF-539; assay: Growth inhibition of human SF539 cells after 48 hrs by SRB protein assay; conditions: SF-539, 48 h; for TGI: read-out: Log TGI (converted)
[22] = test system: SK-MEL-2; assay: Growth inhibition of human SK-MEL-2 cells after 48 hrs by SRB protein assay; conditions: SK-MEL-2, 48 h; for TGI: read-out: Log TGI (converted)
[23] = test system: EKVX; assay: Growth inhibition of human EKVX cells after 48 hrs by SRB protein assay; conditions: for TGI: read-out: Log TGI (converted)
[24] = test system: NCI-H522; assay: Growth inhibition of human NCI-H522 cells after 48 hrs by SRB protein assay; conditions: NCI-H522, 48 h; for TGI: read-out: Log TGI (converted)
[25] = test system: UO-31; assay: Growth inhibition of human UO31 cells after 48 hrs by SRB protein assay; conditions: UO-31, 48 h; for TGI: read-out: Log TGI (converted)
[26] = test system: MDA-MB-231; assay: Growth inhibition of MDA-MB-231 cells after 48 hrs by SRB protein assay; conditions: Homo sapiens, MDA-MB-231, 48 h; for TGI: read-out: Log TGI (converted)
[27] = test system: PC-3; assay: Growth inhibition of human PC3 cells after 48 hrs by SRB protein assay; conditions: PC-3, 48 h; for TGI: read-out: Log TGI (converted)
[28] = test system: ACHN; assay: Growth inhibition of human ACHN cells after 48 hrs by SRB protein assay; conditions: for TGI: read-out: Log TGI (converted)
[29] = test system: CCRF-CEM; assay: Growth inhibition of human CCRF-CEM cells after 48 hrs by SRB protein assay; conditions: for TGI: read-out: Log TGI (converted)
[30] = test system: MDA-MB-435; assay: Growth inhibition of human MDA-MB-435 cells after 48 hrs by SRB protein assay; conditions: MDA-MB-435, 48 h; for TGI: read-out: Log TGI (converted)
[31] = test system: OVCAR-5; assay: Growth inhibition of human OVCAR5 cells after 48 hrs by SRB protein assay; conditions: OVCAR-5, 48 h; for TGI: read-out: Log TGI (converted)
[32] = test system: SNB-19; assay: Growth inhibition of human SNB19 cells after 48 hrs by SRB protein assay; conditions: SNB-19, 48 h; for TGI: read-out: Log TGI (converted)
[33] = test system: SK-OV-3; assay: Growth inhibition of human SK-OV-3 cells after 48 hrs by SRB protein assay; conditions: SK-OV-3, 48 h; for TGI: read-out: Log TGI (converted)
[34] = test system: SW-620; assay: Growth inhibition of human SW620 cells after 48 hrs by SRB protein assay; conditions: SW-620, 48 h; for TGI: read-out: Log TGI (converted)
[35] = test system: SN12C; assay: Growth inhibition of human SN12C cells after 48 hrs by SRB protein assay; conditions: for TGI: read-out: Log TGI (converted)
[36] = test system: SF-295; assay: Growth inhibition of human SF295 cells after 48 hrs by SRB protein assay; conditions: SF-295, 48 h; for TGI: read-out: Log TGI (converted)
[37] = test system: RPMI-8226; assay: Growth inhibition of human RPMI8226 cells after 48 hrs by SRB protein assay; conditions: RPMI-8226, 48 h; for TGI: read-out: Log TGI (converted)
[38] = test system: LOX IMVI; assay: Growth inhibition of human LOX IMVI cells after 48 hrs by SRB protein assay; conditions: for TGI: read-out: Log TGI (converted)
[39] = test system: SK-MEL-28; assay: Growth inhibition of human SK-MEL-28 cells after 48 hrs by SRB protein assay; conditions: SK-MEL-28, 48 h; for TGI: read-out: Log TGI (converted)

SMILES: Nc1nc2[nH]cnc2c(=S)[nH]1 [THIOGUANINE]
- GI50 [1]: 0.537 µM
- TGI [1]: 16.2 µM
- GI50 [2]: 0.501 µM
- TGI [2]: 4.57 µM
- GI50 [3]: 1.7 µM
- TGI [3]: 8.91 µM
- GI50 [4]: 1 µM
- TGI [4]: 18.2 µM
- GI50 [5]: 2.04 µM
- TGI [5]: 107 µM
- GI50 [6]: 0.832 µM
- TGI [6]: 107 µM
- GI50 [7]: 0.537 µM
- TGI [7]: 15.8 µM
- GI50 [8]: 1.07 µM
- TGI [8]: 22.9 µM
- GI50 [9]: 1.15 µM
- TGI [9]: 105 µM
- GI50 [10]: 0.708 µM
- TGI [10]: 6.76 µM
- GI50 [11]: 0.794 µM
- TGI [11]: 135 µM
- GI50 [12]: 1.1 µM
- TGI [12]: 51.3 µM
- GI50 [13]: 2 µM
- TGI [13]: 97.7 µM
- GI50 [14]: 4.79 µM
- TGI [14]: 145 µM
- GI50 [15]: 0.692 µM
- TGI [15]: 60.3 µM
- GI50 [16]: 3.55 µM
- TGI [16]: 105 µM
- GI50 [17]: 1.45 µM
- TGI [17]: 41.7 µM
- GI50 [18]: 0.676 µM
- TGI [18]: 20 µM
- GI50 [19]: 0.759 µM
- TGI [19]: 7.08 µM
- GI50 [20]: 0.708 µM
- TGI [20]: 42.7 µM
- GI50 [21]: 1.02 µM
- TGI [21]: 69.2 µM
- GI50 [22]: 0.933 µM
- TGI [22]: 10.7 µM
- GI50 [23]: 1.91 µM
- TGI [23]: 123 µM
- GI50 [24]: 0.912 µM
- TGI [24]: 6.31 µM
- GI50 [25]: 1.48 µM
- TGI [25]: 32.4 µM
- GI50 [26]: 1.95 µM
- TGI [26]: 166 µM
- GI50 [27]: 1.78 µM
- TGI [27]: 174 µM
- GI50 [28]: 1.95 µM
- TGI [28]: 112 µM
- GI50 [29]: 0.155 µM
- TGI [29]: 25.7 µM
- GI50 [30]: 0.851 µM
- TGI [30]: 32.4 µM
- GI50 [31]: 0.661 µM
- TGI [31]: 47.9 µM
- GI50 [32]: 79.4 µM
- TGI [32]: 245 µM
- GI50 [33]: 0.55 µM
- TGI [33]: 16.6 µM
- GI50 [34]: 18.6 µM
- TGI [34]: 63.1 µM
- GI50 [35]: 1.26 µM
- TGI [35]: 174 µM
- GI50 [36]: 1.02 µM
- TGI [36]: 158 µM
- GI50 [37]: 0.398 µM
- TGI [37]: 20.9 µM
- GI50 [38]: 0.209 µM
- TGI [38]: 9.12 µM
- GI50 [39]: 8.91 µM
- TGI [39]: 155 µM

- GI50 [1]: 9.33 µM
- GI50 [3]: 66.1 µM
- GI50 [4]: 13.2 µM
- GI50 [5]: 37.2 µM
- GI50 [8]: 12.6 µM
- GI50 [9]: 43.7 µM
- GI50 [10]: 24 µM
- GI50 [11]: 14.5 µM
- GI50 [12]: 16.2 µM
- GI50 [15]: 2.34 µM
- GI50 [16]: 13.5 µM
- GI50 [18]: 52.5 µM
- GI50 [20]: 75.9 µM
- GI50 [22]: 33.1 µM
- GI50 [24]: 14.1 µM
- GI50 [26]: 12.9 µM
- GI50 [27]: 20.4 µM
- GI50 [28]: 10.7 µM
- GI50 [29]: 17.4 µM
- GI50 [30]: 12 µM
- GI50 [31]: 30.9 µM
- GI50 [33]: 66.1 µM
- GI50 [34]: 18.6 µM
- GI50 [37]: 7.41 µM
- GI50 [39]: > 100 µM
SMILES: O=C(Cc1csc2nc(-c3ccc(Br)cc3)cn12)N/N=C/c1ccccc1
- TGI [1]: 21.4 µM
- GI50 [2]: 11.5 µM
- TGI [2]: 28.2 µM
- TGI [3]: > 100 µM
- TGI [4]: 49 µM
- TGI [5]: > 100 µM
- GI50 [6]: 27.5 µM
- TGI [6]: > 100 µM
- GI50 [7]: 30.2 µM
- TGI [7]: 81.3 µM
- TGI [8]: 61.7 µM
- TGI [9]: > 100 µM
- TGI [10]: 46.8 µM
- TGI [11]: 44.7 µM
- TGI [12]: > 100 µM
- GI50 [13]: 6.17 µM
- TGI [13]: 31.6 µM
- GI50 [14]: 11.2 µM
- TGI [14]: 32.4 µM
- TGI [15]: 20.4 µM
- TGI [16]: 40.7 µM
- GI50 [17]: 31.6 µM
- TGI [17]: 89.1 µM
- TGI [18]: > 100 µM
- GI50 [19]: 14.5 µM
- TGI [19]: 38.9 µM
- TGI [20]: > 100 µM
- GI50 [21]: 16.2 µM
- TGI [21]: 39.8 µM
- TGI [22]: > 100 µM
- GI50 [23]: 6.92 µM
- TGI [23]: 52.5 µM
- TGI [24]: 60.3 µM
- GI50 [25]: 57.5 µM
- TGI [25]: > 100 µM
- TGI [26]: 57.5 µM
- TGI [27]: > 100 µM
- TGI [28]: 25.7 µM
- TGI [29]: > 100 µM
- TGI [30]: 51.3 µM
- TGI [31]: > 100 µM
- GI50 [32]: 43.7 µM
- TGI [32]: > 100 µM
- TGI [33]: > 100 µM
- TGI [34]: 63.1 µM
- GI50 [35]: 13.2 µM
- TGI [35]: 39.8 µM
- GI50 [36]: 12 µM
- TGI [36]: 37.2 µM
- TGI [37]: > 100 µM
- GI50 [38]: 12.3 µM
- TGI [38]: 91.2 µM
- TGI [39]: > 100 µM
